US10258587B2, “Branched chain fatty acids for prevention or treatment of gastrointestinal disorders” (priority 2007, dated 2019)

Tests used:
Caco-2 cells = assay: Caco-2 BCFA uptake experiment (18 h incubation, GC/MS of cell lipids); format: in vitro ADME, human; settings: BCFA-treated Caco-2 cells
Protocol: Twenty-four hours prior to treatment with BCFA, DMEM was replaced with MEM (Minimum Essential Medium). […] Two others served as controls. Cells were incubated for 18 hours, after which media was removed and the cells were thoroughly and carefully washed three times. Cell lipids were extracted and FAME prepared for GC/MS.

Bacillus megaterium = settings: LL-37 mixed in a ratio of 3:1 with vernix lipids; cited from earlier work

Molecule	incorporation of BCFA into monoacylglycerols (MAG) (Caco-2 cells; MAG fraction)	incorporation of BCFA into phospholipids (PL) (Caco-2 cells; PL fraction)	growth of Bacillus megaterium, peptide mixed with vernix lipids (Bacillus megaterium)
CC(C)CCCCCCCCCCCCCCCCC(=O)O [iso-20:0, iso-eicosanoic acid]	favoring	selection against	–
LL-37: antimicrobial vernix peptide (LLGDFFRKSKEKIGKEFKRIVQRIKDFLRNLVPRTES; Antibacterial peptide LL-37; UniProt P49913 134-170, looked up)	–	–	further growth inhibition
